Experimental data reported in PubChem BioAssay AID328 (DTP/NCI, 2004).
Inconclusive results and toxic doses are left out.

Tested on: BDF1 mice, P388 leukemia ip, median survival T/C
Experiment: NCI In Vivo Anticancer Drug Screen. Data for tumor model P388 Leukemia (intraperitoneal) in B6D2F1 (BDF1) mice
Conditions: endpoint: median survival time, higher = longer survival
In short: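 Compound-treated tumour-bearing mice were compared with vehicle-treated controls. Survival was recorded, and the value is the treated-group measurement divided by the control-group measurement (T/C).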

[1] = dose: 200.0 mg/kg/injection, schedule: Q01DX009 (ip), vehicle: saline with Tween-80
[2] = dose: 200.0 mg/kg/injection, schedule: Q04DX003 (ip), vehicle: saline
[3] = dose: 100.0 mg/kg/injection, schedule: Q01DX009 (ip), vehicle: Klucel (hydroxypropylcellulose) (HPC)
[4] = dose: 100.0 mg/kg/injection, schedule: Q04DX003 (ip), vehicle: Klucel (hydroxypropylcellulose) (HPC)
[5] = dose: 200.0 mg/kg/injection, schedule: Q01DX009 (ip), vehicle: Klucel (hydroxypropylcellulose) (HPC)
[6] = dose: 200.0 mg/kg/injection, schedule: Q04DX003 (ip), vehicle: Klucel (hydroxypropylcellulose) (HPC)
[7] = dose: 400.0 mg/kg/injection, schedule: Q04DX003 (ip), vehicle: Klucel (hydroxypropylcellulose) (HPC)
[8] = dose: 50.0 mg/kg/injection, schedule: Q01DX009 (ip), vehicle: saline with Tween-80
[9] = dose: 100.0 mg/kg/injection, schedule: Q01DX009 (ip), vehicle: saline with Tween-80
[10] = dose: 100.0 mg/kg/injection, schedule: Q04DX003 (ip), vehicle: saline with Tween-80
[11] = dose: 200.0 mg/kg/injection, schedule: Q04DX003 (ip), vehicle: saline with Tween-80
[12] = dose: 6.25 mg/kg/injection, schedule: Q01DX009 (ip), vehicle: saline
[13] = dose: 100.0 mg/kg/injection, schedule: Q01DX009 (ip), vehicle: saline
[14] = dose: 400.0 mg/kg/injection, schedule: Q04DX003 (ip), vehicle: saline with Tween-80

With `CC1OC(OC2C(=O)c3c(O)cc(O)cc3OC2c2ccc(O)c(O)c2)C(O)C(O)C1O` (stereo not drawn) the T/C (dose: 25.0 mg/kg/injection, schedule: Q01DX009 (ip), vehicle: alcohol) was 100 % of control, the T/C (dose: 50.0 mg/kg/injection, schedule: Q01DX009 (ip), vehicle: alcohol) was 96 % of control and the T/C (dose: 100.0 mg/kg/injection, schedule: Q01DX009 (ip), vehicle: alcohol) was 92 % of control. For the same compound, the T/C (dose: 200.0 mg/kg/injection, schedule: Q01DX009 (ip), vehicle: alcohol) was 106 % of control, the T/C [1] was 115 % of control and the T/C (dose: 300.0 mg/kg/injection, schedule: Q01DX009 (ip), vehicle: saline with Tween-80) was 90 % of control. The T/C (dose: 455.0 mg/kg/injection, schedule: Q01DX009 (ip), vehicle: saline with Tween-80) was 99 % of control.

`CC(=O)CC(=O)NCCNCCNC(=O)CC(C)=O` was tested, and the T/C (dose: 100.0 mg/kg/injection, schedule: Q04DX003 (ip), vehicle: saline) was 100 % of control, the T/C [2] was 114 % of control and the T/C (dose: 400.0 mg/kg/injection, schedule: Q04DX003 (ip), vehicle: saline) was 100 % of control.

In the case of `CCOc1ccc2nc(S(N)(=O)=O)sc2c1`, the T/C [3] is reported as 114 % of control, the T/C [4] is reported as 104 % of control and the T/C [5] is reported as 114 % of control. The T/C [6] was 104 % of control, the T/C (dose: 400.0 mg/kg/injection, schedule: Q01DX009 (ip), vehicle: Klucel (hydroxypropylcellulose) (HPC)) was 109 % of control and the T/C [7] was 95 % of control.

`O=C(O)c1ccc(-c2ccccc2)cc1` was tested, and the T/C [8] was 100 % of control, the T/C [9] was 104 % of control and the T/C [10] was 104 % of control. The T/C [1] was 95 % of control and the T/C [11] was 104 % of control.

For `CC#CC#C/C=C1\OC2(CCCCO2)C(OC(C)=O)C1OC(C)=O` (stereo not drawn), the T/C (dose: 10.0 mg/kg/injection, schedule: Q01DX009 (ip), vehicle: Klucel (hydroxypropylcellulose) (HPC)) was 98 % of control, the T/C (dose: 20.0 mg/kg/injection, schedule: Q01DX009 (ip), vehicle: Klucel (hydroxypropylcellulose) (HPC)) was 98 % of control and the T/C (dose: 40.0 mg/kg/injection, schedule: Q01DX009 (ip), vehicle: Klucel (hydroxypropylcellulose) (HPC)) was 115 % of control.

`COC(=O)c1cc(=O)n(-c2ccccc2C(F)(F)F)c(SC)n1` was tested, and the T/C [4] was 116 % of control and the T/C [7] was 123 % of control.

`Cc1ccc(N=C=O)cc1[N+](=O)[O-]` was tested, and the T/C (dose: 25.0 mg/kg/injection, schedule: Q01DX009 (ip), vehicle: gum acacia) was 100 % of control, the T/C (dose: 50.0 mg/kg/injection, schedule: Q01DX009 (ip), vehicle: gum acacia) was 100 % of control and the T/C (dose: 100.0 mg/kg/injection, schedule: Q04DX003 (ip), vehicle: gum acacia) was 91 % of control. The T/C (dose: 200.0 mg/kg/injection, schedule: Q04DX003 (ip), vehicle: gum acacia) was 95 % of control and the T/C (dose: 400.0 mg/kg/injection, schedule: Q04DX003 (ip), vehicle: gum acacia) was 95 % of control.

For `O=C1/C(=C\c2ccc(Cl)cc2)SC(=S)N1c1ccccc1`, the T/C (dose: 37.5 mg/kg/injection, schedule: Q01DX009 (ip), vehicle: saline with Tween-80) was 88 % of control, the T/C (dose: 75.0 mg/kg/injection, schedule: Q01DX009 (ip), vehicle: saline with Tween-80) was 97 % of control and the T/C (dose: 150.0 mg/kg/injection, schedule: Q01DX009 (ip), vehicle: saline with Tween-80) was 108 % of control.

For `COc1ccc(-n2c(=O)c(N=Nc3ccccc3OC)c(O)n(-c3ccccc3C)c2=S)cc1`, the T/C (dose: 100.0 mg/kg/injection, schedule: Q01DX001 (ip), vehicle: Klucel (hydroxypropylcellulose) (HPC)) was 111 % of control, the T/C (dose: 200.0 mg/kg/injection, schedule: Q01DX001 (ip), vehicle: Klucel (hydroxypropylcellulose) (HPC)) was 100 % of control and the T/C (dose: 400.0 mg/kg/injection, schedule: Q01DX001 (ip), vehicle: Klucel (hydroxypropylcellulose) (HPC)) was 88 % of control.

With `O=NN(CS(=O)(=O)O)c1ccccc1` the T/C (dose: 50.0 mg/kg/injection, schedule: Q01DX001 (ip), vehicle: saline with Tween-80) was 104 % of control, the T/C (dose: 50.0 mg/kg/injection, schedule: Q04DX003 (ip), vehicle: Klucel (hydroxypropylcellulose) (HPC)) was 104 % of control and the T/C (dose: 100.0 mg/kg/injection, schedule: Q01DX001 (ip), vehicle: saline with Tween-80) was 104 % of control. For the same compound, the T/C [3] was 104 % of control, the T/C [4] was 113 % of control and the T/C (dose: 200.0 mg/kg/injection, schedule: Q01DX001 (ip), vehicle: saline with Tween-80) was 122 % of control. The T/C [5] was 108 % of control and the T/C [6] was 109 % of control.

`Cc1ccc(C2(C#N)CCCC2)cc1` was tested, and the T/C [9] was 104 % of control and the T/C [1] was 113 % of control.

In the case of `COCCc1ccncc1`, the T/C [9] is reported as 101 % of control and the T/C [1] is reported as 97 % of control.

For `c1ccc(C2=NC(CCN3CCCCC3)(c3ccccc3)SC2CN2CCCCC2)cc1` (stereo not drawn), the T/C (dose: 50.0 mg/kg/injection, schedule: Q01DX005 (ip), vehicle: Klucel (hydroxypropylcellulose) (HPC)) was 101 % of control, the T/C (dose: 100.0 mg/kg/injection, schedule: Q01DX005 (ip), vehicle: Klucel (hydroxypropylcellulose) (HPC)) was 105 % of control and the T/C (dose: 200.0 mg/kg/injection, schedule: Q01DX005 (ip), vehicle: Klucel (hydroxypropylcellulose) (HPC)) was 104 % of control.

In the case of `CCOC(=O)C[P+](c1ccccc1)(c1ccccc1)c1ccccc1`, the T/C (dose: 12.5 mg/kg/injection, schedule: Q04DX003 (ip), vehicle: saline) is reported as 102 % of control, the T/C (dose: 25.0 mg/kg/injection, schedule: Q04DX003 (ip), vehicle: saline) is reported as 102 % of control and the T/C (dose: 50.0 mg/kg/injection, schedule: Q04DX003 (ip), vehicle: saline) is reported as 96 % of control.

With `O=C1NNC(c2ccccc2)C1(Cl)Cl` (stereo not drawn) the T/C (dose: 12.5 mg/kg/injection, schedule: Q01DX009 (ip), vehicle: saline with Tween-80) was 114 % of control and the T/C (dose: 25.0 mg/kg/injection, schedule: Q01DX009 (ip), vehicle: saline with Tween-80) was 99 % of control.

With `CC(=N\[O-])/C(C)=N/O.CC(=N\[O-])/C(C)=N/O.CCCN.[Cl-].[Cl-].[Rh+3]` the T/C [12] was 98 % of control, the T/C (dose: 12.5 mg/kg/injection, schedule: Q01DX009 (ip), vehicle: saline) was 110 % of control and the T/C (dose: 50.0 mg/kg/injection, schedule: Q01DX009 (ip), vehicle: saline) was 89 % of control. The T/C [13] was 94 % of control and the T/C (dose: 200.0 mg/kg/injection, schedule: Q01DX009 (ip), vehicle: saline) was 110 % of control.

In the case of `O=S(=O)(OCCCl)C(F)(F)F`, the T/C (dose: 1.56 mg/kg/injection, schedule: Q01DX009 (ip), vehicle: saline with Tween-80) is reported as 119 % of control, the T/C (dose: 3.12 mg/kg/injection, schedule: Q01DX009 (ip), vehicle: saline with Tween-80) is reported as 107 % of control and the T/C (dose: 6.25 mg/kg/injection, schedule: Q01DX009 (ip), vehicle: saline with Tween-80) is reported as 120 % of control.

In the case of `CCN(CCNc1ccc(C)c2sc3ccccc3c(=O)c12)CC(C)(C)O`, the T/C (dose: 35.0 mg/kg/injection, schedule: Q01DX009 (ip), vehicle: saline) is reported as 108 % of control, the T/C (dose: 44.0 mg/kg/injection, schedule: Q04DX003 (ip), vehicle: saline) is reported as 105 % of control and the T/C (dose: 66.0 mg/kg/injection, schedule: Q04DX003 (ip), vehicle: saline) is reported as 120 % of control. For the same compound, the T/C [13] was 159 % of control, the T/C (dose: 132.0 mg/kg/injection, schedule: Q04DX003 (ip), vehicle: saline) was 160 % of control and the T/C [2] was 185 % of control. For the same compound, the T/C (dose: 225.0 mg/kg/injection, schedule: Q01DX009 (ip), vehicle: saline) was 90 % of control.

With `COC1(OC)C2CCC1C(Cl)=C2Cl` the T/C (dose: 3.13 mg/kg/injection, schedule: Q01DX009 (ip), vehicle: saline) was 102 % of control, the T/C [12] was 100 % of control and the T/C (dose: 25.0 mg/kg/injection, schedule: Q01DX009 (ip), vehicle: saline) was 109 % of control.

With `Nc1c(Br)cc2c(c1Br)Cc1cc(Br)ccc1-2` the T/C [9] was 91 % of control and the T/C [1] was 87 % of control.

`CN(C)CCNCc1c[nH]c(=O)[nH]c1=O` was tested, and the T/C [8] was 97 % of control, the T/C [9] was 94 % of control and the T/C [1] was 93 % of control.

`O=C(NC(CO)C(=O)OCc1ccccc1)OCc1ccccc1` (stereo not drawn) was tested, and the T/C [4] was 95 % of control, the T/C [10] was 100 % of control and the T/C [6] was 87 % of control. For the same compound, the T/C [11] was 100 % of control, the T/C [7] was 91 % of control and the T/C [14] was 100 % of control.

For `CN(C)c1ccc(/C=C/C2CC[N-]C3C(O)CCCC23)cc1.CN(C)c1ccc(/C=C/C2CC[N-]C3C(O)CCCC23)cc1.CN(C)c1ccc(/C=C/C2CC[N-]C3C(O)CCCC23)cc1.[Fe+3]` (stereo not drawn), the T/C (dose: 100.0 mg/kg/injection, schedule: Q04DX002 (ip), vehicle: saline with Tween-80) was 110 % of control and the T/C (dose: 200.0 mg/kg/injection, schedule: Q04DX002 (ip), vehicle: saline with Tween-80) was 122 % of control.

In the case of `CCNC(C)(C)C(SSS)c1cccs1` (stereo not drawn), the T/C [9] is reported as 112 % of control, the T/C [10] is reported as 100 % of control and the T/C [1] is reported as 120 % of control. The T/C [11] was 122 % of control and the T/C [14] was 118 % of control.
